# Earlier results as cited in US5965423A, “Human lysophospholipase” (Incyte Pharmaceuticals, Inc., priority 1998, dated 1999).
# Molecular target: T1, monomeric, 24 kD lysophospholipase (LPL) from rat liver (Rattus norvegicus, UniProt P70470)
# T1 construct: isolated a monomeric, 24 kD LPL from rat liver; host or cells: rat liver (tissue-purified enzyme, Sugimoto et al. 1996)
# Details: substrate 1-palmitoyl-glycero-3-phosphocholine; substrate dependence curve sigmoidal
# T1 sequence (P70470 whole entry): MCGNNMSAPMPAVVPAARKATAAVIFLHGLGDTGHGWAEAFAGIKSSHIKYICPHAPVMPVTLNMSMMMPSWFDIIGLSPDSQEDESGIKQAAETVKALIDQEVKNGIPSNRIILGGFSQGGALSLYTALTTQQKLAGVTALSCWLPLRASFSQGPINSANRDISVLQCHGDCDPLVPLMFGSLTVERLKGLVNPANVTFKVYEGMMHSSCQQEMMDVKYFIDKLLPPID
smiles,measurement,value
CCCCCCCCCCCCCCCC(=O)OCC(O)COP(=O)([O-])OCC[N+](C)(C)C (centres unmarked) [1-palmitoyl-glycero-3-phosphocholine],Km,170 µM
same,Vmax,1.55 µM/min/mg
